According to patent publication US7402589B2, “Tri-substituted ureas as cytokine inhibitors” (The Procter & Gamble Company, priority 2004, dated 2008):
pIC50: −log10 of the molar value.

Tested on: TNF-α
Experiment: TNF-α inhibition in lipopolysaccharide (LPS) stimulated human monocytic cells (THP-1)
Format: cell-based
Conditions: LPS (1 μg/mL) stimulated THP-1 cells, 4 hours, human TNF-α by ELISA
Source text: In addition, Tumor Necrosis Factor, TNF-α, inhibition can be measured by utilizing lipopolysaccharide (LPS) stimulated human monocytic cells (THP-1) as described in: • i) K. M. Mohler et al., “Protection Against a Lethal Dose of Endotoxin by an Inhibitor of Tumour Necrosis Factor Processing”, Nature, 370, pp 218-220 (1994). • ii) U.S. Pat. No. 6,297,381 B1 Cirillo et al., issued Oct. 2, 2001, incorporated by reference and reproduced herein below in relevant portion thereof.
The inhibition of cytokine production can be observed by measuring inhibition of TNF-α in lipopolysaccharide stimulated THP cells. All cells and reagents are diluted in RPMI 1640 with phenol red and L-glutamine, supplemented with additional L-glutamine (total: 4 mM), penicillin and streptomycin (50 units/mL each) and fetal bovine serum (FBS 3%) (GIBCO, all conc. Final). Assay is performed under sterile conditions, only test compound preparation is non-sterile. Initial stock solutions are made in DMSO followed by dilution into RPMI 1640 2-fold higher than the desired final assay concentration. Confluent THP.1 cells (2×10^7 cells/mL, final conc.; American Type Culture Company, Rockville, Md.) are added to 96 well polypropylene round bottomed culture plates (Costar 3790; sterile) containing 125 μL test compound (2-fold concentrated) or DMSO vehicle (controls, blanks). DMSO concentration should not exceed 0.2% final. Cell mixture is allowed to preincubate for 15 minutes at 37° C., 5% CO2 prior to stimulation with lipopolysaccharide (LPS, 1 μg/mL final; Sigma L-2630, from E. coli serotype 0111.B4; stored as 1 mg/mL stock in endotoxin screened diluted H2O vehicle at −80° C.). Blanks (unstimulated) receive H2O vehicle; final incubation volume is 250 μL. Incubation (4 hours) proceeds as described above. Assay is to be terminated by centrifuging plates 5 minutes at room temperature, 1600 rpm […]; supernatants are then transferred to clean 96 well plates and stored at −80° C. until analyzed for human TNF-α by a commercially available ELISA kit (Biosource #KHC3015, Camarillo, Calif.). The calculated IC50 value is the concentration of the test compound that caused a 50% decrease in the maximal TNF-α production.

| Structure (SMILES) | pIC50 |
| --- | --- |
| COc1ccc(N(C(=O)NCc2ccccc2C)c2ccnc(N[C@@H](C)C(C)(C)O)n2)cc1 [1-(4-Methoxyphenyl)-1-{2-[(1S)-2-hydroxy-1,2-dimethyl-propylamino]-pyrimidin-4-yl}-3-(2-methylbenzyl)-urea] | 7.43 |
| C[C@H](Nc1nccc(N(C(=O)NCc2ccccc2Cl)c2ccc(F)cc2)n1)C(C)(C)O [1-(4-Fluorophenyl)-1-{2-[(1S)-2-hydroxy-1,2-dimethyl-propylamino]-pyrimidin-4-yl}-3-(2-chlorobenzyl)-urea] | 7.85 |
| O=C(NCc1ccccc1Cl)N(c1ccc(F)cc1)c1ccnc(NC2CCOCC2)n1 [1-(4-Fluorophenyl)-1-[2-(tetrahydropyran-4-ylamino)-pyrimidin-4-yl]-3-(2-chlorobenzyl)-urea] | 7.80 |
| CCOc1ccc(N(C(=O)NCc2ccccc2Cl)c2ccnc(N[C@@H](C)COC)n2)cc1 [1-(4-Ethoxyphenyl)-1-{2-[(1S)-2-methoxy-1-methyl-ethylamino]-pyrimidin-4-yl}-3-(2-chlorobenzyl)-urea] | 7.25 |
| COc1ccc(N(C(=O)NCc2ccccc2OC)c2ccnc(N[C@@H](C)C(C)(C)O)n2)cc1 [1-(4-Methoxyphenyl)-1-{2-[(1S)-2-hydroxy-1,2-dimethyl-propylamino]-pyrimidin-4-yl}-3-(2-methoxybenzyl)-urea] | 7.82 |

Compounds with a higher pIC50, results first:

| pIC50 | Structure (SMILES) |
| --- | --- |
| 7.89 | COc1ccc(N(C(=O)NCc2ccccc2F)c2ccnc(N[C@@H](C)C(C)(C)O)n2)cc1 [1-(4-Methoxyphenyl)-1-{2-[(1S)-2-hydroxy-1,2-dimethyl-propylamino]-pyrimidin-4-yl}-3-(2-fluorobenzyl)-urea] |
| 8.05 | COc1ccc(N(C(=O)NCc2ccccc2Cl)c2ccnc(N[C@@H](C)C(C)(C)O)n2)cc1 [1-(4-Methoxyphenyl)-1-{2-[(1S)-2-hydroxy-1,2-dimethyl-propylamino]-pyrimidin-4-yl}-3-(2-chlorobenzyl)-urea] |
